Where a name gives a salt, the structure may show the parent alone. Read-outs that look alike come from different tables or passages of the source.
Key:
[1] = target: c-Met receptor tyrosine kinase, GST-c-MET (969-1390) (Homo sapiens (Human), UniProt P08581); conditions: read-out: c-Met Biochem IC50
Experimental: A number of compounds of the present invention were assayed in an antibody based kinase phosphorylation assay as follows.
The EPK kinase assay for c-Met receptor tyrosine kinase was developed, using the purified recombinant GST-fusion protein, containing the cytoplasmic domain of the enzyme.
The kinase assay is based on the LanthaScreen™ technology.
The kinase reactions were performed in 384 well microtiter plates in a total reaction volume of 10.05 μL. The assay plates were prepared with 0.05 μL per well of test compound in the appropriate test concentration, as described under “preparation of compound dilutions”. The reactions were started by combining 5 μL of ATP solution with 5 μL of enzyme-substrate mix (consisting of kinase and substrate). […] Subsequently 5 μL of detection mix (50 mM Tris/HCl, 2 mM DTT, 0.05% Tween20, 20 μM sodium orthovanadate, 1% BSA, 1 nM Tb-PY20 antibody) were added to the stopped reactions. After 45 minutes incubation in dark at room temperature, the plates were measured in a Perkinelmer Envision fluorescence reader.

[2] = hPDE3 assay ([3H]cAMP scintillation proximity assay); format: biochemical, human; conditions: Table 3-C; title says PDE3, head says c-Met Biochem IC50 [nM]
GTL16 cells = assay: GTL16 cell viability assay (CellTiter Glo); conditions: read-out: GTL-16 Proliferation IC50
Experimental: GTL16 Cell Viability Assay:
GTL16 expresses high level of c-Met receptor tyrosine kinase due to the gene amplification.
GTL16 cells were seeded in DMEM medium with 10% FBS and 1% Pene. & Strep. at 5000 cells/well/90 μL in 96 well plate and incubated overnight for attachment at 37° C. in 5% CO2 incubator. 10-fold serials dilutions of compounds were added to the cell as 10 μL/well. The final assay volume was 100 μl/well. The assay plates were incubated at 37° C. in 5% CO2 incubator for 24 hours. […] The chemiluminescent light unit was read in Envision from Perkin Elmer. All the tests were run at triplicates. The IC50 was calculated using Spotfire software.

human platelet PDE3 = human platelet PDE3 (Homo sapiens (Human), UniProt Q14432); assay: hPDE3 assay ([3H]cAMP scintillation proximity assay); format: biochemical; conditions: human platelet PDE3
Excerpt: Here, compounds of formula I were screened for their ability to inhibit human PDE3 in the assay based on Amersham Pharmacia Biotech's Phosphodiesterase (PDE) [^3H]-adenosine 3′,5′ cyclic phosphate ([^3H]cAMP) Scintillation Proximity Assay (SPA). The assay is based on the hydrolysis of [^3H]cAMP, by human platelet PDE3, to [^3H]5′-adenoside monophosphate (5′-AMP). The [^3H]5′-AMP is specifically captured by yttrium silicate SPA beads in the presence of zinc sulphate.
• Optiplate and TopSeal-S (Can berra Packard) • Human platelet PDE3 (partially purified from human platelets)—a titration curve of human platelet PDE3 activity was performed to optimise the concentration of hPDE3 required in the assay. • Yttrium silicate SPA beads and [^3H]cAMP (Amersham) • Tris-Base, magnesium chloride, ethylenediaminetetraacetic acid (di-sodium salt), bovine serum albumin BSA and cAMP (Sigma) Solutions and Buffers: • Assay buffer: 7.56 g Tris-Base was dissolved in approximately 800 mL distilled water and the pH adjusted to 7.5 with 1 M hydrochloric acid. 10.3 mL 1 M magnesium chloride and 4.25 mL 0.5 M EDTA were added. The solution was made to 1 L with distilled water and stored at 4° C. On day of use 18 mL of the above solution was removed and 2 mL 5 mg/ml BSA were added thereto. • Enzyme buffer: 10 mM Tris-HCl at pH 7.5, 1 mM EDTA • Yttrium silicate SPA beads: 1 vial was reconstituted in 28 mL distilled water and stored at 4° C. Assay
The assay was performed in a final volume of 100 μL per well of an Optiplate (Canberra Packard). A 10 μL aliquot of the test compound dissolved in DMSO/distilled water was placed in a well of an Optiplate plate, followed by the addition of 80 μL ‘Assay mix’ (5.5 μL [^3H]cAMP and 88 μL “cold” cAMP were diluted to 8.8 mL using assay buffer). The reaction was started by adding 10 μL hPDE3 (50 μL stock hPDE3 solution was diluted 50 fold to 2.5 mL using enzyme buffer). The plate was incubated at room temperature for 30 min, the reaction was then terminated by the addition of 50 μL Yttrium silicate SPA beads (pre-warmed to room temperature) to all wells. […] The plate was sealed using TopSeal-S according to the manufacturer's instructions and counted using a Packard TopCount, each well being counted for 1 min. IC50 values were determined using non-linear regression.

[3] = human liver S-9; cited from earlier work
[4] = patients treated with SGX523; cited from earlier work
[5] = monkey liver S-9; cited from earlier work
[6] = dog S-9 incubations; cited from earlier work
[7] = 2 μM ATP, 60 minutes at room temperature

human platelet PDE3, sequence (Q14432 whole entry): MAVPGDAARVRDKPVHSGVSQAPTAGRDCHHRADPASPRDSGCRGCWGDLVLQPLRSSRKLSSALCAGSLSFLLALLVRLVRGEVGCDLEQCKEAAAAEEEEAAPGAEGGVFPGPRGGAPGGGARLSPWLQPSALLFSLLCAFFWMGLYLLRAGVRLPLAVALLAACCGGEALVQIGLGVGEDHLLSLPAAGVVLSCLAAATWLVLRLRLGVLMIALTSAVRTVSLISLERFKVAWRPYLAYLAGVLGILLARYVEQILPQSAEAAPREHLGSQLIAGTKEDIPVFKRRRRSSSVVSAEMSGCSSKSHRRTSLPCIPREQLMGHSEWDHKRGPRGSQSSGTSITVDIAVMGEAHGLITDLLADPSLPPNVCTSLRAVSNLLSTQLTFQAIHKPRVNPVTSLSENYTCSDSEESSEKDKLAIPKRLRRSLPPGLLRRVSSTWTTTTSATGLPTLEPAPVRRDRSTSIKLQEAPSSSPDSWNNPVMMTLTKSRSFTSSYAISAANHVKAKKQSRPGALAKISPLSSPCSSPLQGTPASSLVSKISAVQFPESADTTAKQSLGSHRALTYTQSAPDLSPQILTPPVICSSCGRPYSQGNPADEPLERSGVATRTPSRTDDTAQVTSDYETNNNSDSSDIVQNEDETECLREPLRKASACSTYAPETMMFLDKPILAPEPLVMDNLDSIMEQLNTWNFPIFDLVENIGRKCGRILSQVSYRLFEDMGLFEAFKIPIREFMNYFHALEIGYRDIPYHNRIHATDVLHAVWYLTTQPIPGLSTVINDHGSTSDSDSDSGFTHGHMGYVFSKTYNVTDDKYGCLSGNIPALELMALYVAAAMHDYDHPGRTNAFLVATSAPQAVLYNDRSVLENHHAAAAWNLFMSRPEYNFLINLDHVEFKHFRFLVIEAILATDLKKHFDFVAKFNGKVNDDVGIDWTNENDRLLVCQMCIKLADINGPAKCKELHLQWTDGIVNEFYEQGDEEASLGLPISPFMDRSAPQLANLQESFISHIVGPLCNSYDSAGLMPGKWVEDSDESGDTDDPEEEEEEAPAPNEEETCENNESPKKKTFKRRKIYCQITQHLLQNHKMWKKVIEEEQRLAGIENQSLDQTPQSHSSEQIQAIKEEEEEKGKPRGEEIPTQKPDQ
c-Met receptor tyrosine kinase, GST-c-MET (969-1390), sequence (P08581 969-1390): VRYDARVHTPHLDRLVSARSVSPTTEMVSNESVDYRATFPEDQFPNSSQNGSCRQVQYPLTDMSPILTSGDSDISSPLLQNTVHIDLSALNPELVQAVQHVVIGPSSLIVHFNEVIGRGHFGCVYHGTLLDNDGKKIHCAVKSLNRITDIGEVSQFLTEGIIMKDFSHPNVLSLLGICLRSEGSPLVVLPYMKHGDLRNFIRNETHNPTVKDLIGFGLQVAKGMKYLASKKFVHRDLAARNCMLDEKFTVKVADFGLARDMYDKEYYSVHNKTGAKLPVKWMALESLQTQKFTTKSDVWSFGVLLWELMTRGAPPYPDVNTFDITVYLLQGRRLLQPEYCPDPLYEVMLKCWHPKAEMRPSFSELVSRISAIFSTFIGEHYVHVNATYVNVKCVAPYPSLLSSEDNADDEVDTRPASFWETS

SMILES	IC50 [1, 7] [nM]	IC50 (GTL16 cells; GTL16 cells, 24 hours) [nM]	IC50 (human platelet PDE3) [nM]	also measured
Cn1cc(-c2ccc3nnc(C(F)(F)c4ccc5ncccc5c4)n3n2)cn1 [Comparator No. 1 (JNJ-38877605), 6-{Difluoro-[6-(1-methyl-1H-pyrazol-4-yl)-[1,2,4]triazolo[4,3-b]pyridazin-3-yl]-methyl}-quinoline, reference compound]	3	< 10		IC50 [2]: 4 nM
C/C(=N\O)c1ccc2nnc(Sc3ccc4ncc(CN5CCOCC5)cc4c3)n2c1 [Example 79, (E)-1-(3-(3-(Morpholin-4-yl-methyl)quinolin-6-ylthio)-[1,2,4]triazolo[4,3-a]pyridin-6-yl)ethanone oxime]	83	1140	> 30000	
Cn1cc(-c2ccc3nnc(Sc4ccc5ncccc5c4)n3n2)cn1 [Comparator No. 4 (SGX523), 6-[6-(1-Methyl-1H-pyrazol-4-yl)-[1,2,4]triazolo[4,3-b]pyridazin-3-ylsulfanyl]-quinoline]				generation of metabolite M11 [3]: generated; renal function of patients [4]: compromised renal function; generation of metabolite M11 [5]: generated; generation of metabolite M11 [6]: absent
Cn1cc(-c2ccc3nnc(Sc4ccc5ncc(N6CCC(N7CCCCC7)CC6)cc5c4)n3c2)cn1 [Example 30, 3-(1,4′-Bipiperidin-1′-yl)-6-(6-(1-methyl-1H-pyrazol-4-yl)-[1,2,4]triazolo[4,3-a]pyridin-3-ylthio)quinoline]	[…]	[…]	25000	
C[C@@H]1CN(c2cnc3ccc(Sc4nnc5ccc(-c6cnn(C)c6)cn45)cc3c2)CCO1 [Example 35B, (R)-2-Methyl-4-(6-(6-(1-methyl-1H-pyrazol-4-yl)-[1,2,4]triazolo[4,3-a]pyridin-3-ylthio)quinolin-3-yl)morpholine]	4	4		
Cn1cc(-c2ccc3nnc(Sc4ccc5ncc(N6CCN(C7CCCCC7)CC6)cc5c4)n3c2)cn1 [Example 32, 3-(4-Cyclohexylpiperazin-1-yl)-6-(6-(1-methyl-1H-pyrazol-4-yl)-[1,2,4]triazolo[4,3-a]pyridin-3-ylthio)quinoline]	[…]	4	26000	
Cn1cc(-c2ccc3nnc(Sc4ccc5ncccc5c4)n3c2)cn1 [Reference Example No. 63, 6-(6-(1-methyl-1H-pyrazol-4-yl)-[1,2,4]triazolo[4,3-a]pyridin-3-ylthio)quinoline]				IC50 [2]: 15 nM
Cn1cc(-c2cnc3ccc(Sc4nnc5ccc(-c6cnn(CCO)c6)cn45)cc3c2)cn1 [Reference Example No. 73, 2-(4-(3-(3-(1-methyl-1H-pyrazol-4-yl)quinolin-6-ylthio)-[1,2,4]triazolo[4,3-a]pyridin-6-yl)-1H-pyrazol-1-yl)ethanol, reference compound]				IC50 [1]: 5 nM; IC50 [2]: 7 nM
Cn1cc(-c2cc(F)c3nnc(Sc4ccc5ncc(N6CCC(N7CCCCC7)CC6)cc5c4)n3c2)cn1 [Example 31, 3-(1,4′-Bipiperidin-1′-yl)-6-(8-fluoro-6-(1-methyl-1H-pyrazol-4-yl)-[1,2,4]triazolo[4,3-a]pyridin-3-ylthio)quinoline]	3	0.4	30000	
C[C@H]1CN(c2cnc3ccc(Sc4nnc5ccc(-c6cnn(C)c6)cn45)cc3c2)CCO1 [Example 35A, (S)-2-Methyl-4-(6-(6-(1-methyl-1H-pyrazol-4-yl)-[1,2,4]triazolo[4,3-a]pyridin-3-ylthio)quinolin-3-yl)morpholine]	5	1	16000	
C/C(=N\OCCO)c1ccc2nnc(Cc3ccc4ncc(N5CCN(C)CC5)cc4c3)n2n1 [Comparator No. 2, 1-{3-[3-(4-Methyl-piperazin-1-yl)-quinolin-6-ylmethyl]-[1,2,4]triazolo[4,3-b]pyridazin-6-yl}-ethanone O-(2-hydroxy-ethyl)-oxime]				IC50 [2]: 4 nM
Cn1cc(-c2ccc3nnc(Sc4ccc5ncc(N6CCN(c7ccccc7)CC6)cc5c4)n3c2)cn1 [Example 34, 6-(6-(1-Methyl-1H-pyrazol-4-yl)-[1,2,4]triazolo[4,3-a]pyridin-3-ylthio)-3-(4-phenylpiperazin-1-yl)quinoline]	45	1	30000	
CC1CN(c2cnc3ccc(Sc4nnc5ccc(-c6cnn(C)c6)cn45)cc3c2)CCO1 (stereo not drawn) [Example 35, 2-Methyl-4-(6-(6-(1-methyl-1H-pyrazol-4-yl)-[1,2,4]triazolo[4,3-a]pyridin-3-ylthio)quinolin-3-yl)morpholine]	4	0.4		
c1cc2ncc(N3CCOCC3)cc2cc1Sc1nnc2ccc(-c3cn[nH]c3)cn12 [Example 57, 4-(6-(6-(1H-pyrazol-4-yl)-[1,2,4]triazolo[4,3-a]pyridin-3-ylthio)quinolin-3-yl)morpholine]		10	10000	IC50 [1]: […]
Cn1cc(-c2ccc3nnc(Sc4ccc5ncc(NC6CCN(C(=O)OC(C)(C)C)CC6)cc5c4)n3c2)cn1 [Example 22, tert-Butyl 4-(6-(6-(1-methyl-1H-pyrazol-4-yl)-[1,2,4]triazolo[4,3-a]pyridin-3-ylthio)quinolin-3-ylamino)piperidine-1-carboxylate]	19	2	15000	
Cn1cc(-c2ccc3nnc(Sc4ccc5ncc(N)cc5c4)n3c2)cn1 [Example 56, 6-(6-(1-Methyl-1H-pyrazol-4-yl)-[1,2,4]triazolo[4,3-a]pyridin-3-ylthio)quinolin-3-amine hydrochloride]			17000	IC50 [1]: 13 nM; IC50 (GTL16 cells): 33 nM
Fc1cc(-c2cn[nH]c2)cn2c(Sc3ccc4ncc(N5CCOCC5)cc4c3)nnc12 [Example 58, 4-(6-(8-Fluoro-6-(1H-pyrazol-4-yl)-[1,2,4]triazolo[4,3-a]pyridin-3-ylthio)quinolin-3-yl)morpholine]	[…]	8	13000	
C[C@@H]1CN(c2cnc3ccc(Sc4nnc5ccc(-c6cnn(C)c6)cn45)cc3c2)C[C@H](C)N1 [Example 42, 3-((3S,5R)-3,5-Dimethylpiperazin-1-yl)-6-(6-(1-methyl-1H-pyrazol-4-yl)-[1,2,4]triazolo[4,3-a]pyridin-3-ylthio)quinoline]	4	0.6	29000	
Cn1cc(-c2ccc3nnc(Sc4ccc5ncc(N6CCC(F)(F)CC6)cc5c4)n3c2)cn1 [Example 61, 3-(4,4-Difluoro-piperidin-1-yl)-6-[6-(1-methyl-1H-pyrazol-4-yl)-[1,2,4]triazolo[4,3-a]pyridin-3-ylsulfanyl]-quinoline]		2	12000	
C[C@H]1CNCCN1c1cnc2ccc(Sc3nnc4c(F)cc(-c5cnn(C)c5)cn34)cc2c1 [Example 46, (S)-6-(8-Fluoro-6-(1-methyl-1H-pyrazol-4-yl)-[1,2,4]triazolo[4,3-a]pyridin-3-ylthio)-3-(2-methylpiperazin-1-yl)quinoline]	[…]		30000	
Cn1cc(-c2cc(F)c3nnc(Sc4ccc5ncc(N)cc5c4)n3c2)cn1 [Example 55, 6-(8-Fluoro-6-(1-methyl-1H-pyrazol-4-yl)-[1,2,4]triazolo[4,3-a]pyridin-3-ylthio)quinolin-3-amine hydrochloride]			> 30000	IC50 [1]: […]; IC50 (GTL16 cells): 1 nM
C/C(=N\OCCO)c1ccc2nnc(Sc3ccc4ncc(N5CCC(O)CC5)cc4c3)n2c1 [Example 76, (E)-1-(3-((3-(4-Hydroxypiperidin-1-yl)quinolin-6-yl)thio)-[1,2,4]triazolo[4,3-a]pyridin-6-yl)-ethanone O-(2-hydroxyethyl)oxime]		54	14000	

— patent publication US9062045B2, “Triazolopyridine compounds” (Novartis AG, priority 2012, dated 2015)
